Reference: patent US6608082B1, “Treatment of erectile dysfunction using isoquinoline compound melanocortin receptor ligands” (Lion Bioscience AG, priority 1998, dated 2003)
Read-outs that look alike come from different tables or passages of the source. Blank lines part the entries; values can stand above or below the compound they belong to.

Assays:
[1] = biological target: T1, MCR-1 (Homo sapiens, UniProt Q01726); experiment: Melanocortin receptor binding assay, competition with 125I-HP 467, HEK 293 cells expressing hMCR-1; conditions: for IC50: read-out: MC-1 IC50; for % Disp. MC-1 10 μM: displacement of 125I-HP 467 at 10 μM isoquinoline compound
T1 construct: expressed in transfected cells; host or cells: HEK 293
T1 sequence (Q01726 whole entry): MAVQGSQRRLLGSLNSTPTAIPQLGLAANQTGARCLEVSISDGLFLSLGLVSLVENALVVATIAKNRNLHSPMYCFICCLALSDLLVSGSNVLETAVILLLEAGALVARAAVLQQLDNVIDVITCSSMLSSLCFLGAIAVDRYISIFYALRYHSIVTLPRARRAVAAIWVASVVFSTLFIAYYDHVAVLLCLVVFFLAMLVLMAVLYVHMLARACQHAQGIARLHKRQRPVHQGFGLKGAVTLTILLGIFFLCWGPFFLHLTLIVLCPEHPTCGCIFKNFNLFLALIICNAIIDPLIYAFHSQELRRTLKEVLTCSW
Summary of the method: (§1)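 Intact-cell competition binding, 2.5 hr at 37 °C, in PBS/10% calf serum/1 mM CaCl2; hMCR-4 cells at 4×10^3 per tube, hMCR-1 cells at 2×10^4 per tube. Filtration on BSA/CaCl2-soaked GF/B, cold 50 mM Tris pH 7.4 washes, scintillation count.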

[2] = biological target: T2, MCR-4 (Homo sapiens, UniProt P32245); experiment: Melanocortin receptor binding assay, competition with 125I-HP 467, HEK 293 cells expressing hMCR-4; conditions: for IC50: read-out: MC-4 IC50
T2 construct: expressed in transfected cells; host or cells: HEK 293
T2 sequence (P32245 whole entry): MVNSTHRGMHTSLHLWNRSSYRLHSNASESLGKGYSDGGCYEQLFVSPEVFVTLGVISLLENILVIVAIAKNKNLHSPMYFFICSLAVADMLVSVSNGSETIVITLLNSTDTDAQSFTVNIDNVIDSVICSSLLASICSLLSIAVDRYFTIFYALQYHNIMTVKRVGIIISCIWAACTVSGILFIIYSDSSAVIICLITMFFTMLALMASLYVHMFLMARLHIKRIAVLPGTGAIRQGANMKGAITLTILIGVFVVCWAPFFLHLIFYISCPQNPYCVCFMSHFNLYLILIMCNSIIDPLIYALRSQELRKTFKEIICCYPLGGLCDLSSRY
Summary of the method: as §1

[3] = inhibition of binding of 125I-HP 467, HEK 293 cells expressing MCR-1, TRG 2414 library
[4] = inhibition of binding of 125I-HP 467, HEK 293 cells expressing MCR-4, TRG 2414 library
[5] = competition with 125I-HP 467, HEK 293 cells expressing MCR-1
[6] = competition with 125I-HP 467, HEK 293 cells expressing MCR-4
[7] = inhibition of binding of 125I-HP 467, HEK 293 cells expressing MCR-1
[8] = inhibition of binding of 125I-HP 467, HEK 293 cells expressing MCR-4
[9] = TRG 2405 section, inhibition of binding of 125I-HP 467, HEK 293 cells expressing MCR-1
[10] = TRG 2405 section, inhibition of binding of 125I-HP 467, HEK 293 cells expressing MCR-4
[11] = TRG 2406 and TRG 2407 libraries, inhibition of binding of 125I-HP 467
[12] = TRG 2414 library, inhibition of binding of 125I-HP 467, HEK 293 cells expressing MCR-1
[13] = TRG 2414 library, inhibition of binding of 125I-HP 467, HEK 293 cells expressing MCR-4

IC50 [1, 3]: 3270 nM
IC50 [2, 4]: 7310 nM
Structure (SMILES): COc1cccc(CNCC2c3ccccc3CN(CCCCC(CN)NCc3ccccc3)C2c2ccc(Cl)cc2Cl)c1 (stereo not drawn) [TRG 2414-19]

IC50 [1, 3]: 14500 nM
IC50 [2, 4]: 5340 nM
Structure (SMILES): COc1ccc(CNCC2c3ccccc3CN(CCCCC(CN)NCc3ccccc3)C2c2cc(C(F)(F)F)cc(C(F)(F)F)c2)cc1 (stereo not drawn) [TRG 2414-63]

IC50 [1, 5]: 2720 nM
IC50 [2, 6]: 27500 nM
Structure (SMILES): CNC(CN)CCCCN1Cc2ccccc2C(CNC2CCCCC2)C1c1ccc(NCCOC)cc1 (stereo not drawn) [TRG 2409-17]

IC50 [1, 3]: 12500 nM
IC50 [2, 4]: 3120 nM
Structure (SMILES): NCC(CCCCN1Cc2ccccc2C(CNCCc2cccc(Cl)c2)C1c1cc(C(F)(F)F)cc(C(F)(F)F)c1)NCc1ccccc1 (stereo not drawn) [TRG 2414-55]

IC50 [1, 7]: 180 nM
IC50 [2, 8]: 4020 nM
Structure (SMILES): CCNc1ccc(C2C(CNC3CCCCC3)c3ccccc3CN2CCCC(CN)NCC)cc1 (stereo not drawn) [TRG 2411-164]

IC50 [1, 9]: 2110 nM
% Disp. MC-1 10 μM ([1]; first of duplicate): 68.9%
% Disp. MC-1 10 μM ([1]; second of duplicate): 72%
IC50 [2, 10]: 10500 nM
Structure (SMILES): CNC(CN)CN1Cc2ccccc2C(CNC2CCCCC2)C1c1cccn1C (mixture of isomers) [TRG 2405-94]

IC50 [1, 3]: 739 nM
IC50 [2, 4]: 5070 nM
Structure (SMILES): CCCOc1ccc(C2C(CNCc3cccc(OC)c3)c3ccccc3CN2CCCCC(N)CN)cc1 (mixture of isomers) [TRG 2414-177]

Structure (SMILES): COc1ccc(CCNCC2c3ccccc3CN(CCCCC(CN)NCc3ccc(C)cc3)C2c2cc(C(F)(F)F)cc(C(F)(F)F)c2)cc1 (stereo not drawn) [TRG 2421-12]
IC50 [1, 7]: 2570 nM
IC50 [2, 8]: 1400 nM

IC50 [1, 3]: 3060 nM
IC50 [2, 4]: 910 nM
Structure (SMILES): NCC(N)CCCCN1Cc2ccccc2C(CNCc2ccccc2)C1c1cccc(Oc2ccccc2)c1 (stereo not drawn) [TRG 2414-109]

MC-1 IC50 [1, 7]: no fit
IC50 [2, 8]: 63900 nM
Structure (SMILES): CCNC(CN)CCCCN1Cc2ccccc2C(CN)C1c1ccc(O)cc1 (stereo not drawn) [TRG 2415-15]

IC50 [1, 11]: 1230 nM
IC50 [2, 11]: 1740 nM
Structure (SMILES): CNC(CN)CCCCN1Cc2ccccc2C(CNCc2ccccc2O)C1c1cccc(Oc2ccc(OC)cc2)c1 (stereo not drawn) [TRG 2406-7]

Structure (SMILES): CCNc1ccc(C2C(CN)c3ccccc3CN2CCCC(CN)NCCCCN2CCCCC2)cc1 (stereo not drawn) [TRG 2419-13]
IC50 [1, 7]: 73 nM
IC50 [2, 8]: 2510 nM

MC-1 IC50 [1, 3]: no fit
IC50 [2, 4]: 44200 nM
Structure (SMILES): CC(C)Cc1ccc(C(C)CNC(CN)CCCCN2Cc3ccccc3C(CNCc3ccccc3)C2c2cc(C(F)(F)F)cc(C(F)(F)F)c2)cc1 (stereo not drawn) [TRG 2414-72]

IC50 [1, 12]: 6480 nM
IC50 [2, 13]: 5460 nM
Structure (SMILES): NCC(CCCCN1Cc2ccccc2C(CNCc2ccccc2)C1c1ccccc1Br)NCCc1ccccc1 (stereo not drawn) [Cmpd 230]

IC50 [1, 12]: 5560 nM
IC50 [2, 13]: 2420 nM
Structure (SMILES): COc1cccc(CNCC2c3ccccc3CN(CCCCC(N)CN)C2c2ccccc2Br)c1 (stereo not drawn) [Cmpd 217]

IC50 [1, 7]: 60 nM
IC50 [2, 8]: 520 nM
Structure (SMILES): CCNc1ccc(C2C(CNCCc3ccccc3)c3ccccc3CN2CCCC(CN)NCC)cc1 (stereo not drawn) [TRG 2411-152]

IC50 [1, 11]: 2120 nM
IC50 [2, 11]: 11600 nM
Structure (SMILES): CCCOc1ccc(C2C(CNCc3ccccc3O)c3ccccc3CN2CCCCC(CN)NC)cc1 (stereo not drawn) [TRG 2406-16]

MC-1 IC50 [1, 12]: no fit
MC-4 IC50 [2, 13]: no fit
Structure (SMILES): COc1ccc(CCNCC2c3ccccc3CN(CCCCC(N)CN)C2c2ccc(Oc3ccccc3)cc2)cc1 (stereo not drawn) [Cmpd 274]

IC50 [1, 3]: 2360 nM
IC50 [2, 4]: 14000 nM
Structure (SMILES): COc1ccc(CNCC2c3ccccc3CN(CCCCC(CN)NCc3ccccc3)C2c2ccc(Oc3ccccc3)cc2)cc1 (stereo not drawn) [TRG 2414-143]

IC50 [1, 3]: 28300 nM
IC50 [2, 4]: 32100 nM
Structure (SMILES): CC(C)Cc1ccc(C(C)CNC(CN)CCCCN2Cc3ccccc3C(CNCc3ccccc3)C2c2ccc(Cl)cc2Cl)cc1 (stereo not drawn) [TRG 2414-32]

IC50 [1, 3]: 3950 nM
IC50 [2, 4]: 2520 nM
Structure (SMILES): COc1ccc(CCNCC2c3ccccc3CN(CCCCC(CN)NCCc3ccccc3)C2c2ccc(Cl)cc2Cl)cc1 (mixture of isomers) [TRG 2414-26]

IC50 [1, 5]: 120 nM
IC50 [2, 6]: 1120 nM
Structure (SMILES): CCCCNc1ccc(C2C(CN)c3ccccc3CN2CCCC(CN)NCc2ccc(Cl)cc2)cc1 (stereo not drawn) [TRG 2409-225]

IC50 [1, 5]: 100 nM
IC50 [2, 6]: 1050 nM
Structure (SMILES): CCCCNc1ccc(C2C(CN)c3ccccc3CN2CCCCC(CN)NCCc2ccc3ccccc3c2)cc1 (stereo not drawn) [TRG 2411-110]

Structure (SMILES): CCNc1ccc(C2C(CNCCc3ccccc3)c3ccccc3CN2CCCC(CN)NCc2ccccc2CNCCc2ccccc2)cc1 (stereo not drawn) [TRG 2420-16]
IC50 [1, 7]: 164 nM
IC50 [2, 8]: 1200 nM

IC50 [1, 9]: 5340 nM
% Disp. MC-1 10 μM ([1]; first of duplicate): 52.4%
% Disp. MC-1 10 μM ([1]; second of duplicate): 58.4%
IC50 [2, 10]: 12800 nM
Structure (SMILES): CNC(CN)CN1Cc2ccccc2C(CNC2CCCCC2)C1c1ccc(F)c(Br)c1 (stereo not drawn) [TRG 2405-126]
